# Reference: US20050130252A1, “Stabilized susceptibility tests of aerobic pathogens” (Wyeth Holdings Corporation, priority 2003, published 2005)
# Like-named read-outs stand apart in the source and are kept apart here.
# What was measured:
# H. influenzae ATCC 49247 = assay: Broth microdilution MIC; type: cell-based
# Method: (§1) The process for preparing susceptibility test medium are the following steps: • a. Preparing Mueller Hinton Broth II medium by adding 22 grams powdered media to 1.0 liter distilled water; • b. Autoclaving (121° C., 15 psi, 15 minutes) and cooling the medium; • c. Adding Oxyrase® up to about 10% final volume and keeping at 35-37° C. in an incubator for 30 minutes; • d. Adding about 50 μL to each well of a 96 well microtiter plate; • e. Weighing drug and adding broth to drug to bring up to about (standard 128 μg/ml); • f. Adding 50 μL of the drug to the first column of the titer plate; • g. Diluting by two-fold serial diluting across or down the plate. • h. Preparing a Prompt™ inoculum at 10^8 CFU/ml; • i. Diluting inoculum 1:100 in the broth at […] in 9.9 ml (1:100) is 10^6 colony forming units (CFU) forming the adjusted inoculum; • j. Adding 50 μL of the adjusted inoculum to the wells of the microtiter plate; • k. Incubating the plates at 35-37° C. for 18-22 hours; and • l. Reading, with the unaided eye, the MIC.
# The in vitro activities of tigecycline and control antibiotics were determined by the broth microdilution method as recommended by the NCCLS. (National Committee for Clinical Laboratory Standards, 2003. Methods for Dilution Antimicrobial Susceptibility Tests for Bacteria That Grow Aerobically; Approved Standards: M7-A6, Sixth ed, vol. 23., National Committee for Clinical Laboratory Standards Wayne, Pa.) was used for the standard procedures. […] Oxyrase® (Oxyrase Inc, Mansfield, Ohio) was used according to the manufacturer's instructions by adding 1 ml of Oxyrase® to 50 ml of media. Media age studies were performed by preparing MHB in multiple flasks, then storing the media under various conditions. MICs were usually performed in duplicate on each day of testing. Storage under anaerobic conditions was conducted in an anaerobic chamber (MACS MG 1000, Don Whitley Scientific LTD). The pH of the media was determined by pH meter (Corning 430). A comparison of the in vitro activity of tigecycline by agar and broth dilution methodolgies with and without Oxyrase® against clinical isolates is shown in Table 1.
# [1] = system: clinical isolates and strains expressing various tetracycline resistance determinants; assay: Broth microdilution MIC, panel of clinical isolates and tetracycline-resistant strains taken together; type: cell-based; settings: Table 5 panel
# Method: The in vitro activities of tigecycline and control antibiotics were determined by the broth microdilution method as recommended by the NCCLS. (National Committee for Clinical Laboratory Standards, 2003. Methods for Dilution Antimicrobial Susceptibility Tests for Bacteria That Grow Aerobically; Approved Standards: M7-A6, Sixth ed, vol. 23., National Committee for Clinical Laboratory Standards Wayne, Pa.) was used for the standard procedures. MBH with 5% lysed horse blood was used for testing S. pneumoniae and Haemophilus Test Medium was used for testing H. influenzae. Oxyrase® (Oxyrase Inc, Mansfield, Ohio) was used according to the manufacturer's instructions by adding 1 ml of Oxyrase® to 50 ml of media. Media age studies were performed by preparing MHB in multiple flasks, then storing the media under various conditions. MICs were usually performed in duplicate on each day of testing. Storage under anaerobic conditions was conducted in an anaerobic chamber (MACS MG 1000, Don Whitley Scientific LTD). The pH of the media was determined by pH meter (Corning 430). A comparison of the in vitro activity of tigecycline by agar and broth dilution methodolgies with and without Oxyrase® against clinical isolates is shown in Table 1. […]
# P. aeruginosa ATCC 27853 = assay: Broth microdilution MIC; type: cell-based, Pseudomonas aeruginosa; settings: Pseudomonas aeruginosa, ATCC27853, read-out: Minimal Inhibitory Concentration, P. aeruginosa ATCC 27853
# Method: as §1
# The in vitro activities of tigecycline and control antibiotics were determined by the broth microdilution method as recommended by the NCCLS. (National Committee for Clinical Laboratory Standards, 2003. Methods for Dilution Antimicrobial Susceptibility Tests for Bacteria That Grow Aerobically; Approved Standards: M7-A6, Sixth ed, vol. 23., National Committee for Clinical Laboratory Standards Wayne, Pa.) was used for the standard procedures. MBH with 5% lysed horse blood was used for testing S. pneumoniae and Haemophilus Test Medium was used for testing H. influenzae. Oxyrase® (Oxyrase Inc, Mansfield, Ohio) was used according to the manufacturer's instructions by adding 1 ml of Oxyrase® to 50 ml of media. Media age studies were performed by preparing MHB in multiple flasks, then storing the media under various conditions. MICs were usually performed in duplicate on each day of testing. Storage under anaerobic conditions was conducted in an anaerobic chamber (MACS MG 1000, Don Whitley Scientific LTD). The pH of the media was determined by pH meter (Corning 430). A comparison of the in vitro activity of tigecycline by agar and broth dilution methodolgies with and without Oxyrase® against clinical isolates is shown in Table 1.
# E. coli ATCC 25922 = assay: Time-kill assay, fresh vs aged Mueller-Hinton broth; type: cell-based, Escherichia coli; settings: FIG. 1
# Method: Time-kill assays were performed by the broth macrodilution method in accordance with the NCCLS guidelines (NCCLS. 1999. Methods for Determining Bactericidal Activity of Antimicrobial Agents; Approved Guidelines: M26-A, vol. 19. National Committee for Clinical Laboratory Standards, Wayne, Pa.). A starting inoculum of approximately 10^6 CFU/ml and a final concentration of the antibiotic equal to four times the MIC were employed for these assays. Flasks containing 50 ml of MHB II with the appropriate antimicrobial agent were inoculated with […] of the test organism in logarithmic growth phase. Test flasks (250 ml) were incubated with shaking (150 RPM) in a 35° C. water bath. Aliquots were removed for the determination of viable counts at 0, 2, 4, 6 and 24 hours. Serial dilutions were prepared in sterile 0.85% sodium chloride solution. The diluted samples (0.05 ml) were plated onto appropriate agar plates trypticase soy agar (TSA) with a spiral plater (Don Whitley Scientific LTD). The plates were incubated at 35° C. in ambient air for 18-22 hours and the number of colonies were determined on the ProtoCOL plate reader plater (Don Whitley Scientific LTD). Killing curves were constructed by plotting the log10 CFU/ml versus time over 24 hours and the change in bacterial concentration was determined. Data is shown graphically in FIG. 1. Presented in Table 3 are the minimal inhibitory concentration results of the effect of media age, fresh vs. aged and Oxyrase® on the activity of tigecycline.
# To further establish this effect, a time kill experiment was performed with E. coli ATCC 25922 in fresh and aged media at […] and 1 μg/ml of tigecycline, which represents 1×, and 4×MIC of this organism determined in aged media. […]
# [2] = Table 8, Mueller Hinton Broth + Oxyrase, n = 240
# [3] = Table 8, Mueller Hinton Broth, n = 210
smiles,measurement,setting,value
"CN(C)c1cc(NC(=O)CNC(C)(C)C)c(O)c2c1C[C@H]1C[C@H]3[C@H](N(C)C)C(O)=C(C(N)=O)C(=O)[C@@]3(O)C(O)=C1C2=O [Tigecycline, tigecycline]",Number of Occurrences of MIC 0.008 ug/ml,H. influenzae ATCC 49247; [2],2
same,Number of Occurrences of MIC 0.016 ug/ml,H. influenzae ATCC 49247; [2],1
same,Number of Occurrences of MIC 0.06 ug/ml,H. influenzae ATCC 49247; [2],4
same,Number of Occurrences of MIC 0.12 ug/ml,H. influenzae ATCC 49247; [2],156
same,Number of Occurrences of MIC 0.25 ug/ml,H. influenzae ATCC 49247; [2],75
same,Number of Occurrences of MIC 0.5 ug/ml,H. influenzae ATCC 49247; [2],2
same,Number of Occurrences of MIC 0.12 ug/ml,H. influenzae ATCC 49247; [3],13
same,Number of Occurrences of MIC 0.25 ug/ml,H. influenzae ATCC 49247; [3],156
same,Number of Occurrences of MIC 0.5 ug/ml,H. influenzae ATCC 49247; [3],25
same,Number of Occurrences of MIC 1 ug/ml,H. influenzae ATCC 49247; [3],10
same,Number of Occurrences of MIC 2 ug/ml,H. influenzae ATCC 49247; [3],6
same,MICs in fresh media lower than in aged media,[1],1 to 3 dilutions
same,MIC,P. aeruginosa ATCC 27853; 2% Oxyrase,8 µg/mL
same,MIC,P. aeruginosa ATCC 27853; No Oxyrase,16 µg/mL
same,"Time kill, growth of E. coli ATCC25922 in aged media","E. coli ATCC 25922; 0.12 μg/ml of tigecycline, aged media",regrowth of the strain after 6 h exposure
same,"Time kill, growth of E. coli ATCC25922 in fresh media","E. coli ATCC 25922; 0.12 and 1 μg/ml of tigecycline, fresh media",suppressed the growth
same,"Difference in viable growth, fresh vs aged media (time kill kinetics)",E. coli ATCC 25922; E. coli ATCC 25922,> 3 log10
